Two compounds from paper PMC9572083, “Hybrids of 1,4-Quinone with Quinoline Derivatives: Synthesis, Biological Activity, and Molecular Docking with DT-Diaphorase (NQO1)” (Molecules, 2022) can be followed below.

SMILES strings stand for the structures.

What is called melting point is the temperature, or range, at which the solid turns liquid. The IC50 is the concentration that inhibits the measured activity by half. Low values mean greater potency, high ones weaker potency.

T1 sequence (P15559 whole entry): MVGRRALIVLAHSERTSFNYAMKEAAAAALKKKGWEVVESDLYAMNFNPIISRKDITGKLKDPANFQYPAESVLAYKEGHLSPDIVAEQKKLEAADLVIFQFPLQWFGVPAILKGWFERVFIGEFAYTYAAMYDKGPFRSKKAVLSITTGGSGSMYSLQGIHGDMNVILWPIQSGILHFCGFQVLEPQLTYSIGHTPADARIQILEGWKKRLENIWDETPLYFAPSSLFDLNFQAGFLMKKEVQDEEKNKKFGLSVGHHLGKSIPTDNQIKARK

Test system in the first data set: not given
Experiment: not given
Settings: not given
`O=C1C(Cl)=C(Oc2cccc3ccc(Cl)nc23)C(=O)c2cnccc21` [Compound 13d, 6-chloro-7-[(2-chloroquinolin-8-yl)oxy]isoquinoline-5,8-dione] returned a melting point of 127 to 129 °C.
`O=C1C(Cl)=C(Oc2cccc3cccnc23)C(=O)c2ncccc21` [Compound 11a, 6-chloro-7-(quinolin-8-yloxy)quinoline-5,8-dione] showed a melting point of 112 to 114 °C.

In another data set the test system is MDA-MB-231 cells. Nature of the data set: Cytotoxic activity, WST-1 assay, breast cancer MDA-MB-231. The data set is classed as cell-based, human. As to conditions: HFF-1 vs MDA-MB-231. The essentials: (§1)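 Cells seeded at 5 × 10^4/well in DMEM with 10% FCS at 37 °C, 5% CO2, and exposed 72 h to compounds at 1–100 µg/mL. WST-1 formazan read at 450 nm. IC50 is the µM concentration giving 50% growth inhibition, with Neg. meaning above 30 µM; mean of ≥3 independent triplicate experiments.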
On the technique in general: Tetrazolium assays rely on reduction of a dye to a coloured formazan, in cell work by metabolically active cells.
As for `O=C1C(Cl)=C(Oc2cccc3ccc(Cl)nc23)C(=O)c2cnccc21` [Compound 13d, 6-chloro-7-[(2-chloroquinolin-8-yl)oxy]isoquinoline-5,8-dione], the “SI (IC50 HFF-1/IC50 cancer line) MDA-MB-231” value turned out to be 6.64.
In the case of `O=C1C(Cl)=C(Oc2cccc3cccnc23)C(=O)c2ncccc21` [Compound 11a, 6-chloro-7-(quinolin-8-yloxy)quinoline-5,8-dione], the “SI (IC50 HFF-1/IC50 cancer line) MDA-MB-231” value worked out at 0.89.

The same data set, now with this note: Homo sapiens; breast cancer MDA-MB-231, 72 h, WST-1.
`O=C1C(Cl)=C(Oc2cccc3ccc(Cl)nc23)C(=O)c2cnccc21` [Compound 13d, 6-chloro-7-[(2-chloroquinolin-8-yl)oxy]isoquinoline-5,8-dione] yielded an IC50 of 1.67 ± 0.11 µM.
Still for that read-out and setting: the same measure for `O=C1C(Cl)=C(Oc2cccc3cccnc23)C(=O)c2ncccc21` [Compound 11a, 6-chloro-7-(quinolin-8-yloxy)quinoline-5,8-dione]: 11.5 ± 0.19 µM.

Another data set has as its target T1, NQO1 (DT-diaphorase, EC 1.6.5.5, human recombinant) (Homo sapiens, UniProt P15559).
T1 construct: purchased Sigma-Aldrich
Nature of the data set: NQO1 substrate NADPH recycling enzymatic assay. The data set is classed as biochemical. The conditions noted are these: compound 10 µmol/L, pH 7.4, 25 °C, absorbance at 340 nm. A digest of the protocol:
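Human recombinant NQO1 (1.4 µg/mL) in 50 mmol/L potassium phosphate, pH 7.4, was tested with compounds at 10 µmol/L. NADPH was dispensed to start the reaction, and A340 was read every 10 s for 5 min at 25 °C. Initial slopes were expressed as µmol NADPH/µmol NQO1/min against compound-free reactions.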
Turning to `O=C1C(Cl)=C(Oc2cccc3ccc(Cl)nc23)C(=O)c2cnccc21` [Compound 13d, 6-chloro-7-[(2-chloroquinolin-8-yl)oxy]isoquinoline-5,8-dione], the “NQO1 activity (enzymatic conversion rate)” value was determined as 633 ± 32 µmol NADPH/µmol NQO1/min.
As for `O=C1C(Cl)=C(Oc2cccc3cccnc23)C(=O)c2ncccc21` [Compound 11a, 6-chloro-7-(quinolin-8-yloxy)quinoline-5,8-dione], the “NQO1 activity (enzymatic conversion rate)” value is reported as 1399 ± 26 µmol NADPH/µmol NQO1/min.

Still in this data set, the particulars now being: fold higher than streptonigrin.
For `O=C1C(Cl)=C(Oc2cccc3cccnc23)C(=O)c2ncccc21` [Compound 11a, 6-chloro-7-(quinolin-8-yloxy)quinoline-5,8-dione], the “Enzymatic conversion rate relative to streptonigrin” value was “about 2 times”.

For a further data set, the system named is Colo-829 cells. The data set is described as follows: Cytotoxic activity, WST-1 assay, melanoma Colo-829. The data set is classed as cell-based, human. The conditions noted are these: HFF-1 vs Colo-829. A digest of the protocol:
as §1
For `O=C1C(Cl)=C(Oc2cccc3ccc(Cl)nc23)C(=O)c2cnccc21` [Compound 13d, 6-chloro-7-[(2-chloroquinolin-8-yl)oxy]isoquinoline-5,8-dione], the “SI (IC50 HFF-1/IC50 cancer line) Colo-829” value is reported as 5.66.
On the same count and under the same terms, the same measure for `O=C1C(Cl)=C(Oc2cccc3cccnc23)C(=O)c2ncccc21` [Compound 11a, 6-chloro-7-(quinolin-8-yloxy)quinoline-5,8-dione]: 0.55.

The same data set, now with this note: Homo sapiens; melanoma Colo-829, 72 h, WST-1.
In turn, `O=C1C(Cl)=C(Oc2cccc3ccc(Cl)nc23)C(=O)c2cnccc21` [Compound 13d, 6-chloro-7-[(2-chloroquinolin-8-yl)oxy]isoquinoline-5,8-dione] gave an IC50 of 1.96 ± 0.08 µM.
Still for that read-out and setting: next, `O=C1C(Cl)=C(Oc2cccc3cccnc23)C(=O)c2ncccc21` [Compound 11a, 6-chloro-7-(quinolin-8-yloxy)quinoline-5,8-dione]: 18.5 ± 1.31 µM.

For the next data set, the system named is A549 cells. Nature of the data set: Cytotoxic activity, WST-1 assay, lung cancer A549. The data set is classed as cell-based, human. The conditions noted are these: HFF-1 vs A549. A digest of the protocol: as §1
For `O=C1C(Cl)=C(Oc2cccc3ccc(Cl)nc23)C(=O)c2cnccc21` [Compound 13d, 6-chloro-7-[(2-chloroquinolin-8-yl)oxy]isoquinoline-5,8-dione], the “SI (IC50 HFF-1/IC50 cancer line) A549” value was 184.83.
Same read-out and setting: the same measure for `O=C1C(Cl)=C(Oc2cccc3cccnc23)C(=O)c2ncccc21` [Compound 11a, 6-chloro-7-(quinolin-8-yloxy)quinoline-5,8-dione]: 6.08.

The same data set, now with this note: Homo sapiens; lung cancer A549, 72 h, WST-1.
In the case of `O=C1C(Cl)=C(Oc2cccc3ccc(Cl)nc23)C(=O)c2cnccc21` [Compound 13d, 6-chloro-7-[(2-chloroquinolin-8-yl)oxy]isoquinoline-5,8-dione], half-maximal inhibition (IC50) required 0.06 ± 0.01 µM.
For the compound `O=C1C(Cl)=C(Oc2cccc3cccnc23)C(=O)c2ncccc21` [Compound 11a, 6-chloro-7-(quinolin-8-yloxy)quinoline-5,8-dione], the IC50 turned out to be 1.68 ± 0.05 µM.

The subject of another data set is T47D cells. The data set is described as follows: Cytotoxic activity, WST-1 assay, breast cancer T47D. The data set is classed as cell-based, human. The conditions noted are these: HFF-1 vs T47D. A digest of the protocol: as §1
As for `O=C1C(Cl)=C(Oc2cccc3cccnc23)C(=O)c2ncccc21` [Compound 11a, 6-chloro-7-(quinolin-8-yloxy)quinoline-5,8-dione], the “SI (IC50 HFF-1/IC50 cancer line) T47D” value was 0.55.

The same data set, now with this note: Homo sapiens; breast cancer T47D, 72 h, WST-1.
`O=C1C(Cl)=C(Oc2cccc3ccc(Cl)nc23)C(=O)c2cnccc21` [Compound 13d, 6-chloro-7-[(2-chloroquinolin-8-yl)oxy]isoquinoline-5,8-dione] had an IC50 of over 30 µM.
In the case of `O=C1C(Cl)=C(Oc2cccc3cccnc23)C(=O)c2ncccc21` [Compound 11a, 6-chloro-7-(quinolin-8-yloxy)quinoline-5,8-dione], the IC50 came out at 18.7 ± 0.71 µM.

For the next data set, the system named is SK-OV-3 cells. The data set is described as follows: Cytotoxic activity, WST-1 assay, ovarian cancer SK-OV-3. As to conditions: HFF-1 vs SK-OV-3. The data set is classed as cell-based, human. A digest of the protocol:
as §1
With `O=C1C(Cl)=C(Oc2cccc3ccc(Cl)nc23)C(=O)c2cnccc21` [Compound 13d, 6-chloro-7-[(2-chloroquinolin-8-yl)oxy]isoquinoline-5,8-dione], the “SI (IC50 HFF-1/IC50 cancer line) SK-OV-3” value is recorded as 0.65.
In the case of `O=C1C(Cl)=C(Oc2cccc3cccnc23)C(=O)c2ncccc21` [Compound 11a, 6-chloro-7-(quinolin-8-yloxy)quinoline-5,8-dione], the “SI (IC50 HFF-1/IC50 cancer line) SK-OV-3” value worked out at 6.59.

The data set is the same for the next values; noted with them: Homo sapiens; ovarian cancer SK-OV-3, 72 h, WST-1.
The compound `O=C1C(Cl)=C(Oc2cccc3ccc(Cl)nc23)C(=O)c2cnccc21` [Compound 13d, 6-chloro-7-[(2-chloroquinolin-8-yl)oxy]isoquinoline-5,8-dione] gave an IC50 of 17.1 ± 1.76 µM.
With `O=C1C(Cl)=C(Oc2cccc3cccnc23)C(=O)c2ncccc21` [Compound 11a, 6-chloro-7-(quinolin-8-yloxy)quinoline-5,8-dione], the IC50 was found to be 1.55 ± 0.2 µM.

Another data set relates to MCF-7 cells. The data set is described as follows: Cytotoxic activity, WST-1 assay, breast cancer MCF-7. The data set is classed as cell-based, human. As to conditions: HFF-1 vs MCF-7. The essentials: as §1
`O=C1C(Cl)=C(Oc2cccc3ccc(Cl)nc23)C(=O)c2cnccc21` [Compound 13d, 6-chloro-7-[(2-chloroquinolin-8-yl)oxy]isoquinoline-5,8-dione]: the “SI (IC50 HFF-1/IC50 cancer line) MCF-7” value is on record as 6.34.
Take `O=C1C(Cl)=C(Oc2cccc3cccnc23)C(=O)c2ncccc21` [Compound 11a, 6-chloro-7-(quinolin-8-yloxy)quinoline-5,8-dione]: the “SI (IC50 HFF-1/IC50 cancer line) MCF-7” value was determined as 0.53.

Still in this data set, the particulars now being: Homo sapiens, MCF7; breast cancer MCF-7, 72 h, WST-1.
`O=C1C(Cl)=C(Oc2cccc3ccc(Cl)nc23)C(=O)c2cnccc21` [Compound 13d, 6-chloro-7-[(2-chloroquinolin-8-yl)oxy]isoquinoline-5,8-dione] registered an IC50 of 1.75 ± 0.19 µM.
The compound `O=C1C(Cl)=C(Oc2cccc3cccnc23)C(=O)c2ncccc21` [Compound 11a, 6-chloro-7-(quinolin-8-yloxy)quinoline-5,8-dione] had an IC50 of 19.4 ± 0.37 µM.

A further data set deals with HFF-1 cells. Nature of the data set: Cytotoxic activity, WST-1 assay, normal fibroblasts HFF-1. The data set is classed as cell-based. The conditions noted are these: Homo sapiens, normal fibroblasts HFF-1, 72 h. A digest of the protocol: as §1
`O=C1C(Cl)=C(Oc2cccc3ccc(Cl)nc23)C(=O)c2cnccc21` [Compound 13d, 6-chloro-7-[(2-chloroquinolin-8-yl)oxy]isoquinoline-5,8-dione] yielded an IC50 of 11.1 ± 1.07 µM.
The same measure, in the same setting: the same measure for `O=C1C(Cl)=C(Oc2cccc3cccnc23)C(=O)c2ncccc21` [Compound 11a, 6-chloro-7-(quinolin-8-yloxy)quinoline-5,8-dione]: 10.2 ± 0.16 µM.
